Measured values as given in patent publication US8093273B2, “Flavanoids and isoflavanoids for the prevention and treatment of cardiovascular diseases” (Resverlogix Corp., priority 2004, dated 2012).
Converted amounts (≈) assume the structure as drawn.

Legend:
human ApoA-I promoter [1] = assay: ApoA-I promoter induction in Caco-2 intestinal cells (pAI.474-Luc luciferase reporter); format: cell-based; conditions: Caco-2 cells, 15 μM, 48 hours incubation, luciferase activity vs control samples
Protocol: To examine the effects of compounds of the invention to increase ApoA-I expression, Caco-2 cells, an intestinal cell line derived from human epithelial intestinal cells, were grown under conditions recommended by the ATCC and summarized in United States Patent Application Publication No. 20040033480 (“Wong”), incorporated herein by reference.
Briefly, the promoter region of the gene encoding human ApoA-I was isolated and ligated upstream of the firefly luciferase gene to construct the reporter plasmid pAI.474-Luc. This reporter plasmid and pRSV-β-galactosidase (as a control for transfection efficiency) were co-transfected to Caco-2 cells. The Caco-2 cells were then incubated in a MEM selection media containing 20% fetal calf serum supplemented with G418 (final concentration: 0.5 mg/mL, Gibco) to give established strains that stably express from the reporter gene. The strains were seeded in 6-well culture plates and incubated for 48 hours at 37° C. under 5% carbon dioxide. Cells were starved for 24 hrs in MEM selection media containing 0.5% FBS. Then, a solution of a compound of the invention in DMSO or other appropriate solvent was added to the wells at a final concentration of 0 to 100 μM in MEM selection media containing 0.5% FBS.
After further incubation for 48 hours, the cells were harvested and lysed using Reporter Lysis Buffer (PROMEGA E3971), and 50 μL of luciferase assay reagent (PROMEGA E4550 Luciferase Reporter 1000 assay system) was added to measure luciferase activity with a luminometer (Fluoroskan Ascent FL from Thermo electron Corporation). Luciferase activity was normalized to lysate protein concentrations, measured using Bradford Reagent (BioRad Protein Assay reagent Cat #500-0006). The luciferase activity of cells treated with various concentrations of test compounds was compared to that of solvent control sample (i.e., solvent without any compound of the present invention added) and untreated control sample.

[2] = Solubility analysis in PBS (HPLC-UV); format: physicochemical; conditions: aqueous buffer, thermodynamic from solid; 1 mg in 1 mL PBS, sonicated 1 hour, 25° C. for 3 hrs
Protocol: Samples were then centrifuged at 14,000 rpm for 6 minutes at room temperature. The supernatant was diluted with acetonitrile and was removed for analysis. Analysis was performed using HPLC-UV with 7-point standard curve to determine the concentration. The average concentration calculated is regarded as the solubility (μM).

human ApoA-I promoter [3] = assay: ApoA-I promoter induction in HepG2 liver cells (pAI.474-Luc luciferase reporter); format: cell-based; conditions: average values at 15 μM, 48 hours incubation
Protocol: This study determined whether compounds of the invention have an effect on ApoA-I promoter activity expression in HepG2 cells, a liver cell line. Cells were grown under conditions recommended by the ATCC and summarized by Wong.
The promoter region of the gene encoding human ApoA-I was isolated and ligated upstream the structure gene of firefly luciferase to construct a reporter plasmid (pAI.474-Luc). The reporter plasmid, along with pRSV-β-galactosidase (as a control for transfection efficiency), were co-transfected into HepG2 cells. The cells were then incubated in an MEM selection media containing 20% fetal calf serum supplemented with G418 (final concentration: 0.5 mg/mL, Gibco) to give established strains that stably express from the reporter gene. The strains were seeded to a 6-well culture plates and incubated for 48 hours at 37° C. under 5% carbon dioxide. Cells were starved for 24 hrs in MEM selection media containing 0.5% FBS. Then, a solution of the compounds of the invention in DMSO (or other appropriate solvent) was added to the wells at a final concentration of 0 to 100 μM in MEM selection media containing 0.5% FBS.
After further incubation for 48 hours, the cells were harvested and lysed using Reporter Lysis Buffer (PROMEGA E3971), and 50 μL of luciferase assay reagent (PROMEGA E4550 Luciferase Reporter 1000 assay system) were added to measure luciferase activity with a luminometer (Fluoroskan Ascent FL from Thermo electron Corporation). Luciferase activity was normalized to lysate protein concentrations, measured using Bradford Reagent (Biorad Protein Assay reagent Cat #500-0006).

Caco-2 permeability = format: in vitro ADME, human; conditions: human, Caco-2
Text: The Caco-2 cell drug transport model is widely used for screening compounds in drug discovery to assess intestinal transport and predict absorption rates.

hApoA-I transgenic mice = assay: hApoA-I transgenic mice, oral gavage for 14 days; format: in vivo; conditions: Experiment A
Text: To test whether the efficacy of compounds of the invention observed in vitro extended to an in vivo model, transgenic mice carrying multiple copies of the human ApoA-I gene (C57BI/6-tgn(apoa1)1 rub, Jackson Laboratory, Bar Harbor, Me.) were exposed to representative compounds of the invention. The exogenous human ApoA-I gene in these mice enables them to express the human ApoA-I protein under the control of this promoter.
Seven to eight week old male mice, transgenic for human ApoA-I were housed five per cage (10″×20″×8″ with aspen chip bedding) with pelleted Rodent chow [Purina 5001] and water available at all times. After an acclimation period of 1 week, animals were individually identified by numbering on tail and weighed. Mice were pre bled via the retro-orbital plexus, and 150 μl of blood was collected in 1.5 ml Eppendorf tube containing 1 μl of heparin and chilled on ice. Plasma was collected after centrifuging the whole blood at 14000 rpm [TOMY high speed micro-refrigerated centrifuge NTX-150] for 10 minutes at 4° C. and frozen at −80° C. Plasma was analyzed for: human ApoA-I by a human ApoA-I enzyme-linked Immunoassay [Direct Sandwich ELISA Calbiochem Cat#178422, Calbiochem Cat#178452, lot #B9076, Calbiochem Cat #178470 conjugated to Horse Radish Peroxidase (Cedarlane Cat#80220)]; total cholesterol [Ponte scientific reagents: # C7509-STD, #L7580-18, # C7510]; and triglyceride [Pointe Scientific Reagents: # 7532-STD, # L7580-18, #7532]. All samples were measured in triplicates and expressed as mg/dl. Mice were grouped based on the above plasma parameters and having an average body weight of 25 gm.
Two days following pre-bleed, mice were dosed by oral gavage daily for 14 days using a 20 gauge, 11/2″ curved disposable feeding needle [Popper & Sons]; when BID, mice were gavaged morning and afternoon (8 am and 5 pm); when SID mice were gavaged in morning (8 am). Compounds were prepared each day in vehicle. Test article(s), a positive control fenofibrate, and vehicle were dosed at volume of 5 mL/kg of body weight as a suspension (0.1 mL/20 g mouse). Fenofibrate was obtained commercially [SIGMA #F 6020]. Mice weights were recorded on day 1, 4, 7, 10, 12, and 15. On day 15, mice were weighed and fasted for 4 hours, sacrificed by inhalation of CO2 and blood was obtained via cardiac puncture (0.7-1.0 ml). Plasma was collected and frozen at −80° C. Samples were assayed for ApoA-I, total cholesterol, triglyceride and HDL-C by HPLC [Polaris 200 with an auto sampler Prostar 410 from Varian on a Superose 6 10/30 column from Amersham]. Samples were sent for NMR analysis [LipoScience] to identify particle size and subclass for lipoproteins. During necropsy, liver, brown fat, and the whole of small and large intestines were collected, cleaned with cold PBS and frozen at −80° C. for further analysis of compound levels. Variation between studies, in ApoA-I changes, was observed. Therefore, a relative comparison between individual(s) in the study groups was used.
4′-hydroxyflavone (10 mg/kg of body weight), 4-(4-oxo-4H-chromen-2-yl)phenyl nicotinate (Example 71) (10 mg/kg of body weight) and fenofibrate (100 mg/kg of body weight) were BID administered to hApoA-I transgenic mice daily for fourteen days by oral gavage in 0.5% Methylcellulose (w/v)/1% Tween 80 (w/v). Plasma was assayed for ApoA-I (FIG. 3A), HDL cholesterol and total cholesterol (FIG. 3B) and percent weight gain (FIG. 3C).
4′-hydroxyflavone (3 mg/kg of body weight), 4′-hydroxyflavone (10 mg/kg of body weight), 4′-hydroxyflavone (30 mg/kg of body weight), 2-(4-Hydroxy-phenyl)-pyrano[2,3-b]pyridin-4-one (10 mg/kg of body weight), and fenofibrate (100 mg/kg of body weight) were BID administered to hApoA-I transgenic mice daily for fourteen days by oral gavage in 0.5% methylcellulose (w/v)/1% Tween 80 (w/v). In this experiment plasma was assayed for ApoA-I. […]

solubility at 3 h [2] [µM] | melting point [°C] | Papp (Caco-2 permeability) [×10⁻⁶ cm/s] | Compound | ApoA-I Promoter Induction (human ApoA-I promoter [1]) | ApoA-I Promoter Induction (human ApoA-I promoter [3]) | plasma ApoA-I, net % change over vehicle (hApoA-I transgenic mice; 10 mg/kg BID oral gavage, 14 days, 0.5% methylcellulose/1% Tween 80) [%] | liver weight gain normalized to body weight, compared to vehicle (hApoA-I transgenic mice; 10 mg/kg BID, day 15, male mice)
58.2 (≈ 17.3 µg/mL) | 245 to 247 |  | COc1cc(OC)c2c(=O)[nH]c(-c3ccc(O)cc3)cc2c1 [Example 60, 3-(4-Hydroxyphenyl)-6,8-dimethoxyisoquinolin-1(2H)-one] | increased |  |  | 
 | 275 to 276 |  | O=c1cc(-c2ccc(O)c(F)c2)oc2ccccc12 [Example 12, 2-(3-Fluoro-4-hydroxyphenyl)chromen-4-one] |  | increased |  | 
48.5 (≈ 13.1 µg/mL) | 226 to 227 |  | O=c1cc(-c2ccc(O)c(CO)c2)oc2ncccc12 [Example 81, 2-(4-hydroxy-3-(hydroxymethyl)phenyl)-4H-pyrano[2,3-b]pyridin-4-one] | increased |  |  | 
52.6 (≈ 16.7 µg/mL) | 267 to 272 | 0.959 | O=c1cc(-c2ccc(O)c(Br)c2)oc2ncccc12 [Example 42, 2-(3-bromo-4-hydroxyphenyl)-4H-pyrano[2,3-b]pyridin-4-one] | increased |  |  | 
66.8 | 250 to 253 |  | CNc1nc(-c2ccc(O)cc2)cc2cc(OC)cc(OC)c12.Cl [Example 82, 4-(6,8-dimethoxy-1-(methylamino)isoquinolin-3-yl)phenol hydrochloride] | increased |  |  | 
 | 218 to 219 | 4.11 | Oc1ccc(-c2cc3ccccc3cn2)cc1 [Example 54, 4-isoquinolin-3-yl-phenol] | increased | increased |  | 
 |  |  | O=c1cc(-c2ccc(O)cc2)oc2cccc(O)c12 [4′,5-dihydroxyflavone] |  | increased |  | 
47.1 (≈ 12.7 µg/mL) | 253 to 255 |  | COc1cc(-c2cc(=O)c3cccnc3o2)ccc1O [Example 43, 2-(4-hydroxy-3-methoxyphenyl)-4H-pyrano[2,3-b]pyridine-4-one] | increased |  |  | 
 |  |  | O=C1CC(c2ccc(O)cc2)Oc2cc(O)cc(O)c21 (stereo not drawn) [5,7-Dihydroxy-2-(4-hydroxyphenyl)-chroman-4-one] | increased | increased |  | 
 |  |  | O=C(Oc1ccc(-c2cc(=O)c3ccccc3o2)cc1)c1cccnc1 [Example 71, 4-(4-oxo-4H-chromen-2-yl)phenyl nicotinate] | increased | increased | 12.82 | minor changes
 | 246 to 247 |  | O=c1cc(-c2ccc(O)cc2)oc2ccc(CO)cc12 [Example 11, 6-Hydroxymethyl-2-(4-hydroxyphenyl)chromen-4-one] |  | increased |  | 
51.4 (≈ 14.7 µg/mL) | 256 to 258 |  | O=c1cc(-c2ccc(O)c(F)c2)oc2ccc(CO)cc12 [Example 33, 2-(3-fluoro-4-hydroxyphenyl)-6-(hydroxymethyl)-4H-chromen-4-one] | increased |  |  | 
 |  |  | O=C(Oc1ccc(-c2cc(=O)c3c(OC(=O)c4cccnc4)cc(OC(=O)c4cccnc4)cc3o2)cc1)c1cccnc1 [Example 74, 2-(4-Nicotinoyloxy)phenyl)-oxo-4H-chromene-5,7-diyl dinicotinate] | increased | increased |  | 
 |  | 7.42 | Nc1cc(O)ccc1-c1cc(=O)c2ccccc2o1 [Example 3, 2-(2-amino-4-hydroxy-phenyl)-chromen-4-one] |  | increased |  | 
334 (≈ 94.6 µg/mL) | 157 to 159 |  | O=c1cc(-c2ccc(OCCO)cc2)oc2ncccc12 [Example 45, 2-(4-(2-hydroxyethoxy)phenyl)-4H-pyrano[2,3-b]pyridine-4-one] | increased |  |  | 
 |  |  | O=c1c(O)c(-c2ccc(O)c(O)c2)oc2cc(O)cc(O)c12 [3,5,7-trihydroxy-2-(3,4-dihydroxyphenyl)-4H-chromen-4-one, reference compound] |  | increased |  | 
 | 262 to 265 |  | O=c1cc(-c2ccc(CO)cc2)oc2ccc(O)cc12 [Example 14, 6-Hydroxy-2-(4-hydroxymethylphenyl)chromen-4-one] |  | increased |  | 
 |  |  | O=C(Oc1ccc(C2CC(=O)c3c(OC(=O)c4cccnc4)cc(OC(=O)c4cccnc4)cc3O2)cc1)c1cccnc1 (stereo not drawn) [Example 73, 2-(4-(Nicotinoyloxy)phenyl)-4-oxochroman-5,7-diyl dinicotinate] |  | no increase |  | 
